Laboratory results from PubChem BioAssay AID1918936 (Molecular Pharmacology Branch, DTP, NCI, 2023).
pIC50: −log10 of the molar value. Values joined by “and” are separate entries in the source; they are usually repeats but may differ in a detail not shown here. Identical values can stand only once. Each block holds one molecule with its values, some of them ahead of it.

Tested on: 349418-098-R-PDC complex spheroid viability
Assay: Anticancer human tumor 349418-098-R-PDC patient-derived lung adenocarcinoma cell line growth inhibition
Settings: for viability, T/C: stronger effect = lower value
How it was run: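 Drug combinations with the LSD1 inhibitor iadademstat tested on tumor cells co-cultured as spheroids with endothelial cells and mesenchymal stem cells. Concentrations descended in half-log increments from clinical Cmax or 10 microM.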

[1] = curve of first compound, second compound 0.1 µM
[2] = curve of first compound, second compound 0.316 µM
[3] = curve of first compound, second compound 1 µM
[4] = curve of first compound, second compound 3.16 µM
[5] = curve of first compound, second compound 10 µM
[6] = second compound 0.1 µM, first compound 0.0316 µM
[7] = second compound 0.1 µM, first compound 0.1 µM
[8] = second compound 0.316 µM, first compound 0.0316 µM
[9] = second compound 0.316 µM, first compound 0.1 µM
[10] = second compound 1 µM, first compound 0.0316 µM
[11] = second compound 1 µM, first compound 0.1 µM
[12] = second compound 3.16 µM, first compound 0.0316 µM
[13] = second compound 3.16 µM, first compound 0.1 µM
[14] = second compound 10 µM, first compound 0.0316 µM
[15] = second compound 10 µM, first compound 0.1 µM
[16] = second compound 0.1 µM, first compound 0.316 µM
[17] = second compound 0.1 µM, first compound 1 µM
[18] = second compound 0.1 µM, first compound 3.16 µM
[19] = second compound 0.1 µM, first compound 10 µM
[20] = second compound 0.316 µM, first compound 0.316 µM
[21] = second compound 0.316 µM, first compound 1 µM
[22] = second compound 0.316 µM, first compound 3.16 µM
[23] = second compound 0.316 µM, first compound 10 µM
[24] = second compound 1 µM, first compound 0.316 µM
[25] = second compound 1 µM, first compound 1 µM
[26] = second compound 1 µM, first compound 3.16 µM
[27] = second compound 1 µM, first compound 10 µM
[28] = second compound 3.16 µM, first compound 0.316 µM
[29] = second compound 3.16 µM, first compound 1 µM
[30] = second compound 3.16 µM, first compound 3.16 µM
[31] = second compound 3.16 µM, first compound 10 µM
[32] = second compound 10 µM, first compound 0.316 µM
[33] = second compound 10 µM, first compound 1 µM
[34] = second compound 10 µM, first compound 3.16 µM
[35] = second compound 10 µM, first compound 10 µM
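Note: spheroids exposed to agents for seven days before readout.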
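Throughout, for viability, T/C: 100% = DMSO vehicle control wells.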

SMILES: O=C(C=Cc1cccc(S(=O)(=O)Nc2ccccc2)c1)NO + NC1CCC(NC2CC2c2ccccc2)CC1
- pIC50 [1]: 7.06
- pIC50 [2]: 7.02
- pIC50 [3]: 6.92
- pIC50 [4]: 6.95
- pIC50 [5]: 7.08
- viability, T/C (second compound 0.1 µM, first compound 0.00949 µM): 100%
- viability, T/C (second compound 0.1 µM, first compound 0.03 µM): 80.5%
- viability, T/C (second compound 0.1 µM, first compound 0.0949 µM): 48.6%
- viability, T/C (second compound 0.1 µM, first compound 0.3 µM): 18.1%
- viability, T/C (second compound 0.1 µM, first compound 0.949 µM): 4.19%
- viability, T/C (second compound 0.1 µM, first compound 3 µM): 1.29%
- viability, T/C (second compound 0.316 µM, first compound 0.00949 µM): 105%
- viability, T/C (second compound 0.316 µM, first compound 0.03 µM): 80.4%
- viability, T/C (second compound 0.316 µM, first compound 0.0949 µM): 53.1%
- viability, T/C (second compound 0.316 µM, first compound 0.3 µM): 18.7%
- viability, T/C (second compound 0.316 µM, first compound 0.949 µM): 3.88%
- viability, T/C (second compound 0.316 µM, first compound 3 µM): 1.5%
- viability, T/C (second compound 1 µM, first compound 0.00949 µM): 97.1%
- viability, T/C (second compound 1 µM, first compound 0.03 µM): 85.2%
- viability, T/C (second compound 1 µM, first compound 0.0949 µM): 58.5%
- viability, T/C (second compound 1 µM, first compound 0.3 µM): 20.8%
- viability, T/C (second compound 1 µM, first compound 0.949 µM): 3.93%
- viability, T/C (second compound 1 µM, first compound 3 µM): 1.07%
- viability, T/C (second compound 3.16 µM, first compound 0.00949 µM): 102%
- viability, T/C (second compound 3.16 µM, first compound 0.03 µM): 88.3%
- viability, T/C (second compound 3.16 µM, first compound 0.0949 µM): 56.5%
- viability, T/C (second compound 3.16 µM, first compound 0.3 µM): 17%
- viability, T/C (second compound 3.16 µM, first compound 0.949 µM): 3.94%
- viability, T/C (second compound 3.16 µM, first compound 3 µM): 0.93%
- viability, T/C (second compound 10 µM, first compound 0.00949 µM): 96.4%
- viability, T/C (second compound 10 µM, first compound 0.03 µM): 87.3%
- viability, T/C (second compound 10 µM, first compound 0.0949 µM): 44.3%
- viability, T/C (second compound 10 µM, first compound 0.3 µM): 13.2%
- viability, T/C (second compound 10 µM, first compound 0.949 µM): 3.61%
- viability, T/C (second compound 10 µM, first compound 3 µM): 0.5%

SMILES: CC[C@@]1(O)C(=O)OCc2c1cc1n(c2=O)Cc2cc3c(CN(C)C)c(O)ccc3nc2-1 + NC1CCC(NC2CC2c2ccccc2)CC1
- pIC50 [1]: 8.69
- pIC50 [2]: 8.71
- pIC50 [3]: 8.67
- pIC50 [4]: 8.65
- pIC50 [5]: 8.73
- viability, T/C (second compound 0.1 µM, first compound 0.000316 µM): 98.8%
- viability, T/C (second compound 0.1 µM, first compound 0.001 µM): 86.5%
- viability, T/C (second compound 0.1 µM, first compound 0.00316 µM): 27.2%
- viability, T/C (second compound 0.1 µM, first compound 0.01 µM): 8.74%
- viability, T/C [6]: 4.98%
- viability, T/C [7]: 3.65%
- viability, T/C (second compound 0.316 µM, first compound 0.000316 µM): 113%
- viability, T/C (second compound 0.316 µM, first compound 0.001 µM): 78.6%
- viability, T/C (second compound 0.316 µM, first compound 0.00316 µM): 28.8%
- viability, T/C (second compound 0.316 µM, first compound 0.01 µM): 8.08%
- viability, T/C [8]: 5.09%
- viability, T/C [9]: 3.1%
- viability, T/C (second compound 1 µM, first compound 0.000316 µM): 98.9%
- viability, T/C (second compound 1 µM, first compound 0.001 µM): 84.8%
- viability, T/C (second compound 1 µM, first compound 0.00316 µM): 31.4%
- viability, T/C (second compound 1 µM, first compound 0.01 µM): 8.25%
- viability, T/C [10]: 5.11%
- viability, T/C [11]: 2.94%
- viability, T/C (second compound 3.16 µM, first compound 0.000316 µM): 91.6%
- viability, T/C (second compound 3.16 µM, first compound 0.001 µM): 83.5%
- viability, T/C (second compound 3.16 µM, first compound 0.00316 µM): 35.2%
- viability, T/C (second compound 3.16 µM, first compound 0.01 µM): 9.52%
- viability, T/C [12]: 5.25%
- viability, T/C [13]: 3.35%
- viability, T/C (second compound 10 µM, first compound 0.000316 µM): 95%
- viability, T/C (second compound 10 µM, first compound 0.001 µM): 71%
- viability, T/C (second compound 10 µM, first compound 0.00316 µM): 31.8%
- viability, T/C (second compound 10 µM, first compound 0.01 µM): 12%
- viability, T/C [14]: 4.67%
- viability, T/C [15]: 3.15%

SMILES: COc1ccc([C@@H](O)c2cc(-c3ncnc4cc(N5CCOCC5)ccc34)c(F)cc2Cl)nn1 + NC1CCC(NC2CC2c2ccccc2)CC1
- pIC50 [1]: 6.37
- pIC50 [2]: 6.33
- pIC50 [3]: 6.33
- pIC50 [4]: 6.28
- pIC50 [5]: 6.52
- viability, T/C [6]: 102%
- viability, T/C [7]: 109%
- viability, T/C [16]: 52.1%
- viability, T/C [17]: 30.2%
- viability, T/C [18]: 8.02%
- viability, T/C [19]: 5.61%
- viability, T/C [8]: 112%
- viability, T/C [9]: 95.1%
- viability, T/C [20]: 63.3%
- viability, T/C [21]: 26.6%
- viability, T/C [22]: 8.83%
- viability, T/C [23]: 6.71%
- viability, T/C [10]: 122%
- viability, T/C [11]: 102%
- viability, T/C [24]: 60.6%
- viability, T/C [25]: 28.4%
- viability, T/C [26]: 10.5%
- viability, T/C [27]: 6.33%
- viability, T/C [12]: 102%
- viability, T/C [13]: 102%
- viability, T/C [28]: 66.4%
- viability, T/C [29]: 27%
- viability, T/C [30]: 10.9%
- viability, T/C [31]: 5.88%
- viability, T/C [14]: 98.1%
- viability, T/C [15]: 78.8%
- viability, T/C [32]: 48.2%
- viability, T/C [33]: 23.5%
- viability, T/C [34]: 9.1%
- viability, T/C [35]: 5.47%

- pIC50 (compound alone, run of 02/01/2022): < 5.00
SMILES: NC1CC1c1ccc(-c2cccc(O)c2)cc1 (configuration not stated)
- viability, T/C (compound 1 µM): 113% [middle of 25 runs]

- pIC50 (curve of compound): 7.76 and 8.21
SMILES: COc1cc(Nc2ncc3c(n2)-c2ccc(Cl)cc2C(c2c(F)cccc2OC)=NC3)ccc1C(=O)O
- viability, T/C (compound 0.00316 µM): 81.5% and 59.7%
- viability, T/C (compound 0.01 µM): 63.8% and 43.1%
- viability, T/C (compound 0.0316 µM): 35.4% and 41.2%
- viability, T/C (compound 0.1 µM): 40.7% and 45.3%
- viability, T/C (compound 0.316 µM): 31.1% and 40.4%
- viability, T/C (compound 1 µM): 31.7% and 39.1%

SMILES: CC1(C)CCC(CN2CCN(c3ccc(C(=O)NS(=O)(=O)c4ccc(NCC5CCOCC5)c([N+](=O)[O-])c4)c(Oc4cnc5[nH]ccc5c4)c3)CC2)=C(c2ccc(Cl)cc2)C1 + NC1CC1c1ccc(-c2cccc(O)c2)cc1
- pIC50 [1]: 5.73
- pIC50 [2]: 5.73
- pIC50 [3]: 5.69
- pIC50 [4]: 5.69
- pIC50 [5]: 5.77
- viability, T/C [6]: 111%
- viability, T/C [7]: 106%
- viability, T/C [16]: 104%
- viability, T/C [17]: 80.5%
- viability, T/C [18]: 23.9%
- viability, T/C [19]: 0.38%
- viability, T/C [8]: 113%
- viability, T/C [9]: 111%
- viability, T/C [20]: 108%
- viability, T/C [21]: 82.5%
- viability, T/C [22]: 22.9%
- viability, T/C [23]: 0.15%
- viability, T/C [10]: 119%
- viability, T/C [11]: 113%
- viability, T/C [24]: 108%
- viability, T/C [25]: 94.1%
- viability, T/C [26]: 22.5%
- viability, T/C [27]: 0.17%
- viability, T/C [12]: 118%
- viability, T/C [13]: 109%
- viability, T/C [28]: 112%
- viability, T/C [29]: 95.2%
- viability, T/C [30]: 21.9%
- viability, T/C [31]: 0.16%
- viability, T/C [14]: 96.3%
- viability, T/C [15]: 98.9%
- viability, T/C [32]: 93.2%
- viability, T/C [33]: 83.7%
- viability, T/C [34]: 10.5%
- viability, T/C [35]: 0.58%

- pIC50 (compound alone, run of 01/18/2022): < 5.00
SMILES: NC1CCC(NC2CC2c2ccccc2)CC1 (configuration not stated)
- viability, T/C (compound 0.316 µM): 106% (2×) and 102%
- viability, T/C (compound 3.16 µM): 103% [middle of 25 runs]
